Experiments:
[1] = system: C57BL/6 mice, diffuse TBI; test: Sleep-wake parameters (piezoelectric sleep cage) after TBI; format: in vivo, mouse; conditions: 10 mg/kg i.p. 30 min prior to TBI
Protocol: 30 min prior to TBI or sham injury, mice were randomly assigned to a therapeutic group and received an intraperitoneal injection of 2LS80Mel (10 mg/kg) or sterile saline (0.25 ml). Groups were as follows: TBI-2LS80Mel n = 17; TBI-vehicle n = 17; sham n = 22 (vehicle n = 11, 2LS80Mel n = 11).
Mice (19–24 g) were subjected to midline fluid percussion injury (mFPI) consistent with methods previously described ([Lifshitz, 2009]; [Harrison et al., 2014]; [Rowe et al., 2014a]; [Rowe et al., 2014b]; [Rowe et al., 2014c]). Mice were anesthetized using 5% isoflurane in 100% oxygen for 5 min and the head of the mouse was placed in a stereotaxic frame with continuously delivered isoflurane at 2.5% via nosecone. […] The injury hub was closed using a Luer-Loc cap and mice were placed in a heated recovery cage and monitored until they were ambulatory before being returned to their respective sleep cages.
For injury induction 24 h post-surgery, mice were re-anesthetized with 5% isoflurane delivered for 3 min. […] Injured mice were monitored for presence of a forearm fencing response and righting reflex times were recorded as indicators of injury severity ([Hosseini and Lifshitz, 2009]). […] After spontaneously righting, mice were placed in a heated recovery cage and monitored until they were ambulatory (approximately 5–15 min) before being returned to their piezoelectric sleep cage (see below). […]

[2] = system: Sprague Dawley rats, 6-OHDA lesion; test: Unbiased stereology of TH-positive neurons in SNc (study 1); format: in vivo, rat; conditions: mild lesion (25%), 15 mg/kg i.p. 6 h prior to and 24 h post-lesion
Protocol: Rats were treated with 2LS98Lac or saline (vehicle) as outlined in the Schemes in Figures 9A,B via intraperitoneal (i.p.) injection (15 mg/kg). All animals were made hemi-parkinsonian with unilateral, striatal 6-hydroxydopamine (Sigma Aldrich, St. Louis, MO) injections. After surgery, behavioral assessments were done at 2- and 4-weeks post-surgery. 24 h after the last test animals were either euthanized and whole brains were harvested for future biochemical analysis or perfused and brains collected for immunohistochemistry and stereological assessment of tyrosine hydroxylase-positive (TH+) cells remaining in the SNc. In study 1: n = 16 each group were included, and all underwent the behavioral analysis: n = 16, and for the stereology in the SNc, n = 8 each group was used. In study 2: n = 23 each group were included. […]
Stereological probes were applied using a Zeiss Imager M2 microscope (Carl Zeiss, Jena, Germany) equipped with StereoInvestigator software (MBF Bioscience, VT, United States) according to previously published methods ([Corenblum et al., 2015]; [Anandhan et al., 2021]). Using the optical fractionator probe, cells were counted under the ×63 oil immersion objective by a blinded observer. TH+ cells were counted in sections 480 μm apart using a grid size of 170 × 100 μm and counting frame size of 75 × 75 μm. […]

| SMILES | Cumulative minutes slept in the first 6 h post-injury [1] | Sleep in the first dark period [1] | TH-positive neurons in SNc, lesioned vs intact side [2] |
| --- | --- | --- | --- |
| CC[C@H](C)[C@H](NC(=O)CNC(=O)[C@H](CC(=O)O)NC(=O)[C@H](CO)NC(=O)[C@@H](N)Cc1c[nH]cn1)C(=O)N[C@@H](Cc1ccccc1)C(=O)N[C@H](C(=O)N[C@@H](CC(=O)O)C(=O)N[C@@H](CO)C(=O)N[C@@H](Cc1ccc(O)cc1)C(=O)N[C@@H](CO)C(=O)N[C@@H](CCCNC(=N)N)C(=O)N[C@@H](Cc1ccc(O)cc1)C(=O)N[C@@H](CCCNC(=N)N)C(=O)N[C@@H](CCCCN)C(=O)N[C@@H](CCC(N)=O)C(=O)N[C@@H](CC(C)C)C(=O)N[C@@H](C)C(=O)N[C@H](C(=O)N[C@@H](CCCCN)C(=O)N[C@@H](CCCCN)C(=O)N[C@@H](Cc1ccc(O)cc1)C(=O)N[C@@H](CC(C)C)C(=O)N[C@@H](C)C(=O)N[C@@H](C)C(=O)N[C@H](C(=O)N[C@@H](CC(C)C)C(=O)N[C@@H](CO[C@@H]1O[C@H](CO[C@H]2O[C@H](CO)[C@H](O)[C@H](O)[C@H]2O)[C@@H](O)[C@H](O)[C@H]1O)C(N)=O)C(C)C)C(C)C)[C@@H](C)O [Compound 2LS80Mel] | slept comparable minutes to uninjured sham animals | prevented this injury-induced increase in sleep | – |
| [2H]C([2H])([2H])C([2H])(C([2H])([2H])[2H])[C@]([2H])(NC(=O)[C@H](C)NC(=O)[C@H](C)NC(=O)[C@H](CC(C)C)NC(=O)[C@H](Cc1ccc(O)cc1)NC(=O)[C@H](CCCCN)NC(=O)[C@H](CCCCN)NC(=O)[C@@]([2H])(NC(=O)[C@H](C)NC(=O)[C@H](CC(C)C)NC(=O)[C@H](CCC(N)=O)NC(=O)[C@H](CCCCN)NC(=O)[C@H](CCCNC(=N)N)NC(=O)[C@H](Cc1ccc(O)cc1)NC(=O)[C@H](CCCNC(=N)N)NC(=O)[C@H](CO)NC(=O)[C@H](Cc1ccc(O)cc1)NC(=O)[C@H](CO)NC(=O)[C@H](CC(=O)O)NC(=O)[C@@H](NC(=O)[C@H](Cc1ccccc1)NC(=O)[C@@H](NC(=O)CNC(=O)[C@H](CC(=O)O)NC(=O)[C@H](CO)NC(=O)[C@@H](N)Cc1c[nH]cn1)[C@@H](C)CC)[C@@H](C)O)C([2H])(C([2H])([2H])[2H])C([2H])([2H])[2H])C(=O)N[C@@H](CC(C)C)C(=O)N[C@@H](CO[C@@H]1O[C@H](CO)[C@@H](O[C@@H]2O[C@H](CO)[C@H](O)[C@H](O)[C@H]2O)[C@H](O)[C@H]1O)C(N)=O [Compound 2LS98Lac] | – | – | neuronal cell death was attenuated |
